Results published in ChEMBL document CHEMBL1201862, “PubChem BioAssay data set” (2004).
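Assay format: 96-well plates, 48-hour exposure. At the GI50, growth is halved.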 Active and inactive are the calls of the source. Rule as the data show it: active = GI50 up to about 1.1 µM and inactive = higher.

Experiments:
Assay in all cases: inhibition of tumour cell growth, NCI panel, 48 h
K562 = tested on: K562
ACHN = tested on: ACHN
NCI-H23 = tested on: NCI-H23
DMS-114 = tested on: DMS-114
M19-MEL = tested on: M19-MEL
TK-10 = tested on: TK-10
NCI-H460 = tested on: NCI-H460
XF498 = tested on: XF498
HL-60 = tested on: HL-60
LOX IMVI = tested on: LOX IMVI
SNB-78 = tested on: SNB-78
CAKI-1 = tested on: CAKI-1
SK-MEL-5 = tested on: SK-MEL-5
DMS-273 = tested on: DMS-273
DLD-1 = tested on: DLD-1
SF-539 = tested on: SF-539
HOP-18 = tested on: HOP-18

Measured: GI50

O=C(O)c1cc2c3c(c1)[C@H]1C=CC[C@H]1CN3CC1CC=CC21 (stereo partly specified)
inactive: K562 > 100 µM | ACHN > 100 µM | NCI-H23 > 100 µM | DMS-114 > 100 µM | M19-MEL > 100 µM | TK-10 > 100 µM | NCI-H460 > 100 µM | XF498 > 100 µM | HL-60 > 100 µM | LOX IMVI > 100 µM | SNB-78 > 100 µM | CAKI-1 > 100 µM | SK-MEL-5 > 100 µM | DMS-273 > 100 µM | DLD-1 > 100 µM | SF-539 > 100 µM | HOP-18 > 100 µM

C=C1C(=O)C[C@@]23CCC[C@@]12CC(O)C3 (stereo partly specified)
inactive: K562 24.5 µM | NCI-H23 21.8 µM | DMS-114 16.7 µM | M19-MEL 24.8 µM | NCI-H460 20.8 µM | XF498 22.6 µM | HL-60 19.5 µM | LOX IMVI 14.6 µM | SNB-78 28.2 µM | CAKI-1 > 10 µM | SK-MEL-5 10.5 µM | DMS-273 17.3 µM | DLD-1 18.6 µM | SF-539 25.6 µM | HOP-18 6.79 µM

O=C(CCC(=O)Nc1ccccc1C(F)(F)F)N/N=C1\C(=N\NC(=O)CCC(=O)Nc2ccccc2C(F)(F)F)C(c2ccc3c(c2)OCO3)Oc2ccccc21 (stereo unspecified)
inactive: K562 3.54 µM | ACHN 6.46 µM | NCI-H23 22.8 µM | DMS-114 2.74 µM | M19-MEL 18.4 µM | TK-10 > 64.7 µM | NCI-H460 4.02 µM | XF498 34.2 µM | HL-60 3.4 µM | LOX IMVI 6.28 µM | SNB-78 25.8 µM | CAKI-1 10.1 µM | SK-MEL-5 7.74 µM | DMS-273 5.58 µM | DLD-1 5.04 µM | SF-539 12 µM | HOP-18 > 100 µM

O=NN(CCCl)C(=O)NC1CCSc2ccccc21 (stereo unspecified)
inactive: K562 > 62.4 µM | NCI-H23 > 100 µM | DMS-114 47.2 µM | M19-MEL > 100 µM | NCI-H460 > 69.3 µM | XF498 > 100 µM | HL-60 23.3 µM | LOX IMVI 82 µM | SNB-78 > 100 µM | CAKI-1 > 100 µM | SK-MEL-5 > 100 µM | DMS-273 > 100 µM | DLD-1 > 100 µM | SF-539 27.4 µM | HOP-18 > 69 µM

COc1ccc(C23C(=O)c4ccccc4N2O[C@H]2C(=O)N(c4ccccc4)C(=O)[C@H]23)cc1 (stereo partly specified)
inactive: K562 > 100 µM | ACHN > 100 µM | NCI-H23 > 100 µM | DMS-114 > 100 µM | M19-MEL > 100 µM | TK-10 > 100 µM | NCI-H460 > 100 µM | XF498 > 100 µM | HL-60 > 100 µM | LOX IMVI > 100 µM | SNB-78 > 100 µM | CAKI-1 > 100 µM | SK-MEL-5 > 100 µM | DMS-273 > 100 µM | DLD-1 > 100 µM | SF-539 > 100 µM | HOP-18 > 100 µM
